The source of these data is paper PMC12389136, “Insights into the Structural Patterns in Human Glioblastoma Cell Line SF268 Activity and ADMET Prediction of Curcumin Derivatives” (Pharmaceutics, 2025).

One experiment relates to SF268 cell microtubules. The experiment can be described thus: Immunofluorescence staining of microtubules in SF268 cells. In kind it is cell-based, Human. The conditions noted are these: SF268, 10 µg/mL, 24 h / 12 h, versus DMSO control.
For another experiment, the system named is Vero cells. The experiment can be described thus: Mammalian cytotoxicity, MTT assay in Vero cells. In kind it is cell-based. The conditions noted are these: Chlorocebus sabaeus, 48 h. The protocol:
Grade IV SF268 glioblastoma cells and Vero epithelial cells were obtained from ATCC and cultured in complete medium consisting of Roswell Park Memorial Institute medium (RPMI-1640) supplemented with 0.05% gentamicin (50 mg/mL) and 10% FBS (fetal bovine serum; Gibco, Invitrogen, Carlsbad, CA, USA). Cultures were maintained at 37 °C in a 5% CO2 atmosphere and split by trypsin treatment once per week to maintain confluence.
For the cytotoxicity assays, Vero cells were cultivated in 96-well plates at 37 °C under a 5% CO2 atmosphere using RPMI-1640 medium with 0.05% gentamicin (50 mg/mL) and 10% FBS (fetal bovine serum). Vero cells were allowed to adhere for 24 h before being incubated for 48 h with the samples. During the treatment, dimethyl sulfoxide (DMSO) was used as a negative control, curcumin (1) was used as a control, and samples were assayed at four different concentrations. After incubation, MTT (3-(4,5-di-methyl-thiazol-2-yl)-2,5-diphenyl-tetrazolium bromide) was added to each well, and the absorbance at 570 nm was determined 4 h later using a color plate reader. Cytotoxicity was evaluated colorimetrically by calculating the ability of the remaining living Vero cells to reduce the pale yellow MTT to the black–purple formazan product, as previously described. All bioassays were performed in duplicate, and the inhibitory concentration (IC50) values were determined using the Data Analysis complement Wizard of Excel 2000 (Microsoft, Seattle, WA, USA).

The test system of a further experiment is SF268 glioblastoma cells. Nature of the experiment: MTT cytotoxicity in the glioblastoma cell line SF268 (single-concentration screening and IC50). The experiment is classed as cell-based, Human. The procedure: Cultures were maintained at 37 °C in a 5% CO2 atmosphere and split by trypsin treatment once per week to maintain confluence.
RPMI without cells was used as a color control, and doxorubicin was used as an inhibition control. After treatment, MTT was added to each well, and the absorbance at 570 nm was determined 4 h later using a color plate reader. All bioassays were performed in duplicate, and the IC50 values were determined by the Data Analysis complement Wizard of Excel 2000 (Microsoft, Seattle, WA, USA).

Experiment [1] has as its system mitochondrial membrane potential of SF268 cancer cells. Nature of the experiment: Mitochondrial membrane potential measurement with DiOC6. The experiment is classed as cell-based, Human. As to conditions: 10 µg/mL, 6 h, versus DMSO control. The protocol: Changes in membrane potential were measured by staining cultured cells with the mitochondrial selective dye 3,3′-dihexyloxacarbocyanine (DiOC6) at 10 nM (Thermo Fisher, Waltham, MA, USA). The samples were incubated at 10 μg/mL for 6 h at 37 °C and then stained for 20 min with DiOC6 in the dark. Following incubation, the cells were washed, and the green fluorescence intensity of the DiOC6-stained cells was analyzed with a fluorometer immediately after staining. Incubation for 1 h with the mitochondrial membrane disruptor CCCP, carbonyl cyanide m-chlorophenylhydrazone (50 μM final concentration), was used as a positive control.
Changes in the mitochondrial membrane potential, a common hallmark of programmed cell death, were analyzed in samples with promising activities toward CNS cell line growth. We examined the effects of these compounds on the mitochondrial membrane potential using the dye DiOC6, a fluorophore that accumulates rapidly and selectively inside mitochondria depending on the membrane potential.
Figure 6 Changes in mitochondrial membrane potential caused by the compounds. Fluorometry was used to measure the mitochondrial effects of compounds that inhibited cell growth in culture. A membrane disruptor (CCCP) was added as a positive control, and untreated cultures (DMSO) were used as a negative control. […]

Experiment [2] concerns ROS production in SF268 cells. Nature of the experiment: Intracellular reactive oxygen species production (DCFDA). In kind it is cell-based, Human. The conditions noted are these: derivatives 10 µg/mL for 3 h, H2O2 100 µM positive control. The protocol: Intracellular ROS formation was measured by fluorometry with the reactive dye chloromethyl dichlorodihydrofluorescein diacetate (DCFDA; Molecular Probes). […] Cultures were incubated with curcumin derivatives at 10 μg/mL for 3 h, after which the ROS-specific fluorescent dye DCFDA solution was added to the cells. After 30 min, fluorescence was measured at a wavelength of 485 nm (excitation)/535 nm (emission) using a microplate reader (Molecular Devices, San Jose, CA, USA).
Intracellular ROS production was tested following the treatment of SF268 cells with the curcumin derivatives at 10 μg/mL by fluorometry after staining with DCFDA.
Figure 7 Effects of curcumin derivatives on ROS generation. Cells were treated with curcumin derivatives at 10 μg/mL for 3 h. ROS production was determined using the DCFH-DA assay.

Protocol for SF268 cell microtubules: SF268 cells were seeded onto 96-well plates and allowed to adhere overnight in complete growth medium (RPMI-1640).
After treatment, the cells were rinsed two times with PBS, fixed in 4% paraformaldehyde (15 min), and permeabilized with 0.5% Triton X-100 (Sigma Aldrich, St. Louis, MO, USA) (5 min). Nonspecific binding was blocked with 5% bovine serum albumin (BSA) in phosphate-buffered saline (PBS) for 1 h. […] Nuclei were counterstained with Hoechst 33342 (15 min), washed 2 times with PBS, and left in PBS at 4 °C in the dark.
Fluorescence images were acquired with an Olympus IX70 microscope (Olympus, Tokyo, Japan) using a 60× objective with identical exposure settings for all conditions. Microtubule density and organization were acquired and analyzed using β-tubulin signals in HCImage Hamamatsu (version 4.8) and ImageJ (version 1.54).
SF268 cells were exposed to media containing either DMSO as a control or curcumin derivatives at 10 μg/mL for 24 h, after which the microtubules were visualized with an α tubulin antibody (yellow), and the cell nuclei were stained with Hoechst (blue).
The cells were then stained with a β-tubulin antibody (yellow) and Hoechst dye (blue) to visualize the nucleus.

For the molecule `C=CCOC(=O)CCC(=O)Oc1ccc(/C=C/C(=O)/C=C(O)/C=C/c2ccc(O)c(OC)c2)cc1OC` [Compound 11, Allyl (4-(1E,3Z,6E)-3-hydroxy-7-(4-hydroxy-3-methoxyphenyl)-5-oxohepta-1,3,6-trien-1-yl)-2-methoxyphenyl) succinate], the “microtubule density and organization” value in the experiment on SF268 cell microtubules is “significant reduction in microtubule density”. Moreover, the IC50 with Vero cells stood at 11.9 µg/mL; in the experiment with SF268 glioblastoma cells (Homo sapiens, SF-268, SF268, 48 h, MTT), 0.59 µg/mL. For the same molecule, the activity at 10 µg/mL in the experiment on SF268 glioblastoma cells (Homo sapiens, SF-268, 48 h, SF268, single concentration 10 µg/mL, 48 h, MTT, percentage of relative growth, read-out: Growth Screening (%RG)) is no more than 40%. The “Selectivity Index (SI)” value in the experiment on SF268 glioblastoma cells (Vero versus SF268) was 20.17. In experiment [1], the “mitochondrial membrane potential (DiOC6 fluorescence intensity)” value is listed as “lowest fluorescence intensity”.

On to `OO` [Compound H2O2, Hydrogen peroxide], for which the ROS production entry in experiment [2] is reported as “distinct ROS production”.

With `O=C1O[C@H]([C@@H](O)CO)C(O)=C1O` [ascorbic acid], in experiment [2], the ROS production entry is listed as “expected decrease”.
